The values below come from patent US12655130B2 (ASSEMBLY BIOSCIENCES, INC., priority 2020, dated 2026).

The subject of one assay is HBV viral load (viral production from HepAD38 cells). As to the kind of experiment: Activity of test compounds on viral production from HepAD38 cells (viral load by qPCR of HBV core sequence). It counts as cell-based. To be noted: Hepatitis B virus, HePAD38, 120 h, viral load lowering, 5 days, qPCR of supernatant, read-out: VL HepAD38 EC50 range. Summed up: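 HepAD38 cells seeded at 50,000/well in tetracycline-free medium with 2% FBS, treated 5 days at 37 °C with compounds from 10 μM top concentration. Supernatant HBV DNA quantified by TaqMan qPCR of core sequence against HBV DNA standards, relative to DMSO wells; viability by CellTiter-Glo; EC50/CC50 by four-parameter logistic fit.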
(Real-time PCR tracks product formation cycle by cycle.)
For `Cn1cnc(C2CC3CC(O)(c4cnn(C)c4C(F)(F)F)CC3C2)c1C(=O)Nc1ccc(F)c(Cl)c1` (centres unmarked) [Example 141, N-(3-Chloro-4-fluorophenyl)-4-(5-hydroxy-5-(1-methyl-5-(trifluoromethyl)-1H-pyrazol-4-yl)octahydropentalen-2-yl)-1-methyl-1H-imidazole-5-carboxamide], the EC50 (in general, the concentration that produces a half-maximal response) is less than 10 nM.

For `CC(C)n1nccc1C1(O)CC2CC(c3ncn(C)c3C(=O)Nc3ccc(F)c(Cl)c3)CC2C1` (centres unmarked) [Example 120, N-(3-chloro-4-fluorophenyl)-4-(5-hydroxy-5-(1-isopropyl-1H-pyrazol-5-yl)octahydropentalen-2-yl)-1-methyl-1H-imidazole-5-carboxamide], the EC50 was less than 10 nM.

As for `CC(C)C(N)C(=O)Nc1cc(C2(O)CC3CC(c4ncn(C)c4C(=O)Nc4ccc(F)c(Cl)c4)CC3C2)n(C)n1` (centres unmarked) [Example 220, 4-(5-(3-(2-Amino-3-methylbutanamido)-1-methyl-1H-pyrazol-5-yl)-5-hydroxyoctahydropentalen-2-yl)-N-(3-chloro-4-fluorophenyl)-1-methyl-1H-imidazole-5-carboxamide], the EC50 was less than 10 nM.

On to `Cn1cnc(C2CC3CC(O)(c4c(F)cnn4C)CC3C2)c1C(=O)Nc1ccc(F)c(Cl)c1` (centres unmarked) [Example 124, N-(3-chloro-4-fluorophenyl)-4-(5-(4-fluoro-1-methyl-1H-pyrazol-5-yl)-5-hydroxyoctahydropentalen-2-yl)-1-methyl-1H-imidazole-5-carboxamide], for which the EC50 is less than 10 nM.

For `CC(=O)c1nn(C)cc1C1(O)CC2CC(c3ncn(C)c3C(=O)Nc3ccc(F)c(Cl)c3)CC2C1` (centres unmarked) [Example 183, 4-(5-(3-Acetyl-1-methyl-1H-pyrazol-4-yl)-5-hydroxyoctahydropentalen-2-yl)-N-(3-chloro-4-fluorophenyl)-1-methyl-1H-imidazole-5-carboxamide], the EC50 is 10 to 50 nM.

In the case of `Cn1cnc(C2CC3CC(O)(c4c[nH]nc4C(F)(F)F)CC3C2)c1C(=O)Nc1ccc(F)c(C#N)c1` (centres unmarked) [Example 193, N-(3-Cyano-4-fluorophenyl)-4-(5-hydroxy-5-(3-(trifluoromethyl)-1H-pyrazol-4-yl)octahydropentalen-2-yl)-1-methyl-1H-imidazole-5-carboxamide], the 50% effective concentration (EC50) was less than 10 nM.

`CC(CO)COc1cc(C2(O)CC3CC(c4ncn(C)c4C(=O)Nc4ccc(F)c(Cl)c4)CC3C2)n(C)n1` (centres unmarked) [Example 211, N-(3-Chloro-4-fluorophenyl)-4-(5-hydroxy-5-(3-(3-hydroxy-2-methylpropoxy)-1-methyl-1H-pyrazol-5-yl)octahydropentalen-2-yl)-1-methyl-1H-imidazole-5-carboxamide]: the EC50 is less than 10 nM.

As to `CCn1nc(C(F)F)cc1C1(O)CC2CC(c3ncn(C)c3C(=O)Nc3ccc(F)c(Cl)c3)CC2C1` (centres unmarked) [Example 152, N-(3-Chloro-4-fluorophenyl)-4-(5-(3-(difluoromethyl)-1-ethyl-1H-pyrazol-5-yl)-5-hydroxyoctahydropentalen-2-yl)-1-methyl-1H-imidazole-5-carboxamide], the EC50 was less than 10 nM.

For the compound `CCn1nc(C(F)F)cc1C1(O)CC2CC(c3ncn(C)c3C(=O)Nc3ccc(F)c(C#N)c3)CC2C1` (centres unmarked) [Example 192, N-(3-Cyano-4-fluorophenyl)-4-(5-(3-(difluoromethyl)-1-ethyl-1H-pyrazol-5-yl)-5-hydroxyoctahydropentalen-2-yl)-1-methyl-1H-imidazole-5-carboxamide], the EC50 was less than 10 nM.

As for `Cc1c(N)nn(C)c1C1(O)CC2CC(c3ncn(C)c3C(=O)Nc3ccc(F)c(Cl)c3)CC2C1` (centres unmarked) [Example 75, 4-(5-(3-Amino-1,4-dimethyl-1H-pyrazol-5-yl)-5-hydroxyoctahydropentalen-2-yl)-N-(3-chloro-4-fluorophenyl)-1-methyl-1H-imidazole-5-carboxamide], the EC50 is less than 10 nM.

Consider `Cn1cnc(C2CC3CC(O)(c4[nH]ncc4F)CC3C2)c1C(=O)Nc1ccc(F)c(Cl)c1` (centres unmarked) [Example 148, N-(3-Chloro-4-fluorophenyl)-4-(5-(4-fluoro-1H-pyrazol-5-yl)-5-hydroxyoctahydropentalen-2-yl)-1-methyl-1H-imidazole-5-carboxamide], for which the EC50 was less than 10 nM.

Turning to `Cn1cnc(C2CC3CC(O)(c4cc(N)nn4C)CC3C2)c1C(=O)Nc1ccc(F)c(Cl)c1` (centres unmarked) [Example 51, 4-(5-(3-Amino-1-methyl-1H-pyrazol-5-yl)-5-hydroxyoctahydropentalen-2-yl)-N-(3-chloro-4-fluorophenyl)-1-methyl-1H-imidazole-5-carboxamide], the EC50 is less than 10 nM.

Take `Cn1cnc(-c2ccc(C3CCC(c4ncn(C)c4C(=O)Nc4ccc(F)c(Cl)c4)C3)cc2)c1` (centres unmarked) [Example 14, N-(3-Chloro-4-fluorophenyl)-1-methyl-4-(3-(4-(1-methyl-1H-imidazol-4-yl)phenyl)cyclopentyl)-1H-imidazole-5-carboxamide]: the EC50 is less than 10 nM.

For `CN1CCN(C2CC3CC(c4ncn(C)c4C(=O)Nc4ccc(F)c(Cl)c4)CC3C2)CC1` (centres unmarked) [Example 18, N-(3-Chloro-4-fluorophenyl)-1-methyl-4-(5-(4-methylpiperazin-1-yl)octahydropentalen-2-yl)-1H-imidazole-5-carboxamide], the EC50 lay in the range of 10 to 50 nM.

Take `CCC(O)COc1cc(C2(O)CC3CC(c4ncn(C)c4C(=O)Nc4ccc(F)c(Cl)c4)CC3C2)n(C)n1` (centres unmarked) [Example 203, N-(3-Chloro-4-fluorophenyl)-4-(5-hydroxy-5-(3-(2-hydroxybutoxy)-1-methyl-1H-pyrazol-5-yl)octahydropentalen-2-yl)-1-methyl-1H-imidazole-5-carboxamide]: the EC50 was less than 10 nM.

`Cc1nc(C2CC3CC(O)CC3C2)c(C(=O)Nc2ccc(F)c(Cl)c2)n1C` (centres unmarked) [Example 24, N-(3-Chloro-4-fluorophenyl)-4-(5-hydroxyoctahydropentalen-2-yl)-1,2-dimethyl-1H-imidazole-5-carboxamide]: the EC50 is less than 10 nM.

As to `CCNc1nc(C2CC3CC(=O)CC3C2)c(C(=O)Nc2ccc(F)c(Cl)c2)n1C` (centres unmarked) [Example 49, N-(3-chloro-4-fluorophenyl)-2-(ethylamino)-1-methyl-4-(5-oxooctahydropentalen-2-yl)-1H-imidazole-5-carboxamide], the concentration giving a half-maximal response (EC50) was 50 to 500 nM.

As to `Cn1ccnc1C1(O)CC2CC(c3ncn(C)c3C(=O)Nc3ccc(F)c(Cl)c3)CC2C1` (single isomer, unassigned) [Example 5, N-(3-Chloro-4-fluorophenyl)-4-(5-hydroxy-5-(1-methyl-1H-imidazol-2-yl)octahydropentalen-2-yl)-1-methyl-1H-imidazole-5-carboxamide], the EC50 is less than 10 nM.

`Cn1c(Cl)nc(C2CC3CC(=O)CC3C2)c1C(=O)Nc1ccc(F)c(Cl)c1` (centres unmarked) [Example 21, 2-Chloro-N-(3-chloro-4-fluorophenyl)-1-methyl-4-(5-oxooctahydropentalen-2-yl)-1H-imidazole-5-carboxamide]: the EC50 was less than 10 nM.

The assay is the same for the next values; noted with them: viral load lowering, 5 days, qPCR of supernatant, read-out: VL HepAD38 EC50 range.
As to `Cn1cnc(C2CC3CC(O)(CO)CC3C2)c1C(=O)Nc1ccc(F)c(Cl)c1` (single isomer, unassigned) [Example 20, N-(3-Chloro-4-fluorophenyl)-4-(5-hydroxy-5-(hydroxymethyl)octahydro-pentalen-2-yl)-1-methyl-1H-imidazole-5-carboxamide], the EC50 was less than 10 nM.
